{
  "source": "PubChem BioAssay (NCI)",
  "note": "Where “and” joins values, the source holds several entries; their conditions need not be identical. Identical values can stand only once.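 Compound exposure: 48 hours, 5 concentrations, 96-well plates. Here, GI50 denotes the concentration required for 50% inhibition of growth. TGI is the concentration that stops growth completely.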",
  "data": [
    {"test_system": "SK-MEL-5 melanoma", "experiment": "NCI anticancer screen, dose series, 48 h", "values": [
      {"smiles": "Oc1ccc2ccccc2c1N=Nc1nccs1", "GI50": "3550 nM", "TGI": "15.6 µM"},
      {"smiles": "Cn1c(=O)c2[nH]c(SCc3ccccn3)nc2n(C)c1=S", "TGI": "> 100 µM"},
      {"smiles": "COc1cc2c(c(O)c1Br)C(=O)c1c(O)cc(C[C@H](C)O)cc1[C@H]2[C@H]1c2cc(C[C@H](C)O)cc(O)c2C(=O)c2c1cc(OC)c(Br)c2O", "GI50": "7440 nM and 15000 nM", "TGI": "16 µM and 28.5 µM"},
      {"smiles": "COc1ccc(-c2cc(=O)c3ccc(O)cc3o2)cc1OC", "TGI": "41.8 µM"},
      {"smiles": "CC[C@]1(O)C[C@@H]2CN(CCc3c([nH]c4ccccc34)[C@@](C(=O)OC)(c3cc4c(cc3OC)N(C)[C@H]3[C@@](O)(C(=O)OC)[C@H](OC(C)=O)[C@]5(CC)C=CCN6CC[C@]43[C@@H]65)C2)C1", "GI50": "< 10 nM", "TGI": "< 0.0385 µM"},
      {"smiles": "N#CSc1c[nH]c2cccc(/C=C/C(=O)/C=C(/C=C/c3cccc4[nH]cc(SC#N)c34)OB(F)F)c12", "GI50": "1230 nM", "TGI": "2.92 µM"},
      {"smiles": "COc1cc([N+](=O)[O-])cc2c3c(n(C)c12)[C@@]1(C)CCC2c4ccc(OCc5ccccc5)cc4CCC2C1C3", "note": "(some centres not stated)", "GI50": "78900 nM", "TGI": "> 100 µM"},
      {"smiles": "C=CC(=O)N1CC2(CCN(c3nc(OC4CCN(CCCOC)CC4)nc4c(OCC(F)(F)F)c(-c5c(C)ccc6[nH]ncc56)c(C5CC5)cc34)CC2)C1", "GI50": "2140 nM", "TGI": "4.93 µM"},
      {"smiles": "FC(F)(F)c1cccc(Nc2nccc(-c3cnn4nc(-c5ccccc5)ccc34)n2)c1", "GI50": "14700 nM", "TGI": "> 25 µM"},
      {"smiles": "CC[C@@H]1C(=O)N(C)c2cnc(Nc3ccc(C(=O)NC4CCN(C)CC4)cc3OC)nc2N1C1CCCC1", "GI50": "8.61 nM and 12.3 nM", "TGI": "0.205 µM and 0.274 µM"},
      {"smiles": "C=C1C(=O)O[C@H]2[C@H]1CC/C(COC(=O)c1ccc3ccccc3c1)=C\\CC[C@@]1(C)O[C@@H]21", "GI50": "1630 nM", "TGI": "3 µM"},
      {"smiles": "Nc1nc(Cl)c2ncn(Cc3ccc(C45CC6CC(CC(C6)C4)C5)c(O)c3)c2n1", "GI50": "558 nM", "TGI": "11 µM"},
      {"smiles": "CCC(C)c1c(Cl)nc(Cl)nc1Cl", "note": "(configuration not stated)", "TGI": "13 µM"},
      {"smiles": "O=C1Nc2c(C(F)(F)F)cccc2[C@]1(c1ccc(O)cc1)c1ccc(OC(F)(F)F)cc1", "GI50": "11900 nM", "TGI": "24.6 µM"},
      {"smiles": "COc1ccc(/C=C/c2nccc3ccccc23)cc1OC", "TGI": "> 10 µM"}
    ]},
    {"test_system": "SK-OV-3 ovarian", "experiment": "NCI anticancer screen, dose series, 48 h", "values": [
      {"smiles": "COC(=O)[C@]12CC[C@@H](C)[C@H](C)[C@@H]1C1=CC[C@@H]3[C@@]4(C)C/C(=N\\O)[C@H](O)[C@@]5(C)COC(=C45)C[C@@]3(C)[C@]1(C)CC2", "GI50": "16.6 µM", "TGI": "30.5 µM"},
      {"smiles": "Oc1c(CN2CCC(N3CCCCC3)CC2)cc(Cc2cc(CN3CCC(N4CCCCC4)CC3)c(O)c3ncccc23)c2cccnc12", "GI50": "1.21 µM", "TGI": "5.08 µM"},
      {"smiles": "Cn1c2ccccc2c2c(-c3ccccc3)[n+]3ccncc3nc21", "GI50": "> 100 µM", "TGI": "> 100 µM"},
      {"smiles": "C[C@@H]1OC(O)[C@@H](F)[C@H](O)[C@@H]1O", "note": "(some centres not stated)", "GI50": "> 100 µM", "TGI": "> 100 µM"},
      {"smiles": "COc1ccc(-c2cnnc3c(-c4cccc(C(F)(F)F)c4)cnn23)cc1", "GI50": "3.5 µM", "TGI": "> 100 µM"},
      {"smiles": "NC(=O)c1ccc(I)c(N)c1", "GI50": "> 100 µM", "TGI": "> 100 µM"},
      {"smiles": "C=CCCCCCCCCC(=O)[O][Sn]([CH2]CCC)([CH2]CCC)[CH2]CCC", "GI50": "0.149 µM", "TGI": "0.306 µM"},
      {"smiles": "CC/C(=C(/c1ccc(O)cc1)c1ccc(OCCNC)cc1)c1ccccc1", "GI50": "3.45 µM", "TGI": "12 µM"},
      {"smiles": "O=C(/C(Br)=C/c1ccccc1)c1ccccc1", "GI50": "16 µM", "TGI": "34.6 µM"},
      {"smiles": "O=C1CCCCN1CCCCC#Cc1ccccc1C#Cc1ccc([N+](=O)[O-])cc1", "GI50": "1.57 µM", "TGI": "6.47 µM"},
      {"smiles": "CCOc1cc2c(Cl)ncnc2c(OCC)c1OCC", "GI50": "16.5 µM", "TGI": "30.5 µM"},
      {"smiles": "Oc1ccc2ccccc2c1N=Nc1nccs1", "GI50": "1.98 µM", "TGI": "41.2 µM"},
      {"smiles": "Cn1c(=O)c2[nH]c(SCc3ccccn3)nc2n(C)c1=S", "TGI": "66.4 µM"},
      {"smiles": "COc1cc2c(c(O)c1Br)C(=O)c1c(O)cc(C[C@H](C)O)cc1[C@H]2[C@H]1c2cc(C[C@H](C)O)cc(O)c2C(=O)c2c1cc(OC)c(Br)c2O", "GI50": "11.6 µM and 24.3 µM", "TGI": "47.1 µM and 89.8 µM"},
      {"smiles": "COc1ccc(-c2cc(=O)c3ccc(O)cc3o2)cc1OC", "TGI": "> 100 µM"},
      {"smiles": "CC[C@]1(O)C[C@@H]2CN(CCc3c([nH]c4ccccc34)[C@@](C(=O)OC)(c3cc4c(cc3OC)N(C)[C@H]3[C@@](O)(C(=O)OC)[C@H](OC(C)=O)[C@]5(CC)C=CCN6CC[C@]43[C@@H]65)C2)C1", "TGI": "45 µM"},
      {"smiles": "N#CSc1c[nH]c2cccc(/C=C/C(=O)/C=C(/C=C/c3cccc4[nH]cc(SC#N)c34)OB(F)F)c12", "GI50": "9.74 µM", "TGI": "41.5 µM"},
      {"smiles": "COc1cc([N+](=O)[O-])cc2c3c(n(C)c12)[C@@]1(C)CCC2c4ccc(OCc5ccccc5)cc4CCC2C1C3", "note": "(some centres not stated)", "GI50": "54.5 µM", "TGI": "> 100 µM"},
      {"smiles": "C=CC(=O)N1CC2(CCN(c3nc(OC4CCN(CCCOC)CC4)nc4c(OCC(F)(F)F)c(-c5c(C)ccc6[nH]ncc56)c(C5CC5)cc34)CC2)C1", "GI50": "8.57 µM", "TGI": "23.8 µM"},
      {"smiles": "FC(F)(F)c1cccc(Nc2nccc(-c3cnn4nc(-c5ccccc5)ccc34)n2)c1", "GI50": "> 22.6 µM", "TGI": "> 25 µM"},
      {"smiles": "CC[C@@H]1C(=O)N(C)c2cnc(Nc3ccc(C(=O)NC4CCN(C)CC4)cc3OC)nc2N1C1CCCC1", "GI50": "0.00746 µM and < 0.01 µM", "TGI": "0.593 µM and 0.128 µM"},
      {"smiles": "C=C1C(=O)O[C@H]2[C@H]1CC/C(COC(=O)c1ccc3ccccc3c1)=C\\CC[C@@]1(C)O[C@@H]21", "GI50": "3.51 µM", "TGI": "10.8 µM"},
      {"smiles": "Nc1nc(Cl)c2ncn(Cc3ccc(C45CC6CC(CC(C6)C4)C5)c(O)c3)c2n1", "GI50": "5.64 µM", "TGI": "21.4 µM"},
      {"smiles": "CCC(C)c1c(Cl)nc(Cl)nc1Cl", "note": "(configuration not stated)", "TGI": "> 100 µM"},
      {"smiles": "O=C1Nc2c(C(F)(F)F)cccc2[C@]1(c1ccc(O)cc1)c1ccc(OC(F)(F)F)cc1", "GI50": "17.3 µM", "TGI": "36.5 µM"},
      {"smiles": "COc1ccc(/C=C/c2nccc3ccccc23)cc1OC", "TGI": "> 10 µM"}
    ]},
    {"test_system": "UO-31 renal", "experiment": "NCI anticancer screen, dose series, 48 h", "values": [
      {"smiles": "COC(=O)[C@]12CC[C@@H](C)[C@H](C)[C@@H]1C1=CC[C@@H]3[C@@]4(C)C/C(=N\\O)[C@H](O)[C@@]5(C)COC(=C45)C[C@@]3(C)[C@]1(C)CC2", "GI50": "12300 nM", "TGI": "29.2 µM"},
      {"smiles": "Oc1c(CN2CCC(N3CCCCC3)CC2)cc(Cc2cc(CN3CCC(N4CCCCC4)CC3)c(O)c3ncccc23)c2cccnc12", "GI50": "1000 nM", "TGI": "4.22 µM"},
      {"smiles": "Cn1c2ccccc2c2c(-c3ccccc3)[n+]3ccncc3nc21", "GI50": "> 100000 nM", "TGI": "> 100 µM"},
      {"smiles": "C[C@@H]1OC(O)[C@@H](F)[C@H](O)[C@@H]1O", "note": "(some centres not stated)", "GI50": "> 100000 nM", "TGI": "> 100 µM"},
      {"smiles": "NC(=O)c1ccc(I)c(N)c1", "GI50": "> 100000 nM", "TGI": "> 100 µM"},
      {"smiles": "C=CCCCCCCCCC(=O)[O][Sn]([CH2]CCC)([CH2]CCC)[CH2]CCC", "GI50": "132 nM", "TGI": "0.276 µM"},
      {"smiles": "CC/C(=C(/c1ccc(O)cc1)c1ccc(OCCNC)cc1)c1ccccc1", "GI50": "1860 nM", "TGI": "4.8 µM"},
      {"smiles": "O=C(/C(Br)=C/c1ccccc1)c1ccccc1", "GI50": "1360 nM", "TGI": "3.35 µM"},
      {"smiles": "O=C1CCCCN1CCCCC#Cc1ccccc1C#Cc1ccc([N+](=O)[O-])cc1", "GI50": "19500 nM", "TGI": "84.6 µM"},
      {"smiles": "CCOc1cc2c(Cl)ncnc2c(OCC)c1OCC", "GI50": "8450 nM", "TGI": "23.6 µM"},
      {"smiles": "Oc1ccc2ccccc2c1N=Nc1nccs1", "GI50": "216 nM", "TGI": "11.9 µM"},
      {"smiles": "Cn1c(=O)c2[nH]c(SCc3ccccn3)nc2n(C)c1=S", "TGI": "> 100 µM"},
      {"smiles": "COc1cc2c(c(O)c1Br)C(=O)c1c(O)cc(C[C@H](C)O)cc1[C@H]2[C@H]1c2cc(C[C@H](C)O)cc(O)c2C(=O)c2c1cc(OC)c(Br)c2O", "GI50": "7520 nM and 15400 nM", "TGI": "15.9 µM and 29.8 µM"},
      {"smiles": "CC[C@]1(O)C[C@@H]2CN(CCc3c([nH]c4ccccc34)[C@@](C(=O)OC)(c3cc4c(cc3OC)N(C)[C@H]3[C@@](O)(C(=O)OC)[C@H](OC(C)=O)[C@]5(CC)C=CCN6CC[C@]43[C@@H]65)C2)C1", "GI50": "175 nM", "TGI": "19.1 µM"},
      {"smiles": "N#CSc1c[nH]c2cccc(/C=C/C(=O)/C=C(/C=C/c3cccc4[nH]cc(SC#N)c34)OB(F)F)c12", "GI50": "391 nM", "TGI": "1.55 µM"},
      {"smiles": "COc1cc([N+](=O)[O-])cc2c3c(n(C)c12)[C@@]1(C)CCC2c4ccc(OCc5ccccc5)cc4CCC2C1C3", "note": "(some centres not stated)", "GI50": "> 100000 nM", "TGI": "> 100 µM"},
      {"smiles": "C=CC(=O)N1CC2(CCN(c3nc(OC4CCN(CCCOC)CC4)nc4c(OCC(F)(F)F)c(-c5c(C)ccc6[nH]ncc56)c(C5CC5)cc34)CC2)C1", "GI50": "1700 nM", "TGI": "3.13 µM"},
      {"smiles": "FC(F)(F)c1cccc(Nc2nccc(-c3cnn4nc(-c5ccccc5)ccc34)n2)c1", "GI50": "10800 nM", "TGI": "> 23.1 µM"},
      {"smiles": "CC[C@@H]1C(=O)N(C)c2cnc(Nc3ccc(C(=O)NC4CCN(C)CC4)cc3OC)nc2N1C1CCCC1", "GI50": "323 nM and 631 nM", "TGI": "> 3.97 µM and 15.1 µM"},
      {"smiles": "C=C1C(=O)O[C@H]2[C@H]1CC/C(COC(=O)c1ccc3ccccc3c1)=C\\CC[C@@]1(C)O[C@@H]21", "GI50": "859 nM", "TGI": "2.11 µM"},
      {"smiles": "Nc1nc(Cl)c2ncn(Cc3ccc(C45CC6CC(CC(C6)C4)C5)c(O)c3)c2n1", "GI50": "12700 nM", "TGI": "28.1 µM"},
      {"smiles": "CCC(C)c1c(Cl)nc(Cl)nc1Cl", "note": "(configuration not stated)", "TGI": "33.4 µM"},
      {"smiles": "O=C1Nc2c(C(F)(F)F)cccc2[C@]1(c1ccc(O)cc1)c1ccc(OC(F)(F)F)cc1", "GI50": "6450 nM", "TGI": "20 µM"}
    ]}
  ]
}
